Data as given in patent US20020137929A1, “1 - (3-heterocyclylphenyl) isothiourea, -isourea, -guanidine and -amidine herbicidal agents” (Intellectual Property Department, BASF Aktiengesellschaft, priority 1998, published 2002).

Experiments:
[1] = system: ZEAMX (Corn, Field); experiment: Postemergence herbicidal evaluation; format: in vivo, Zea mays; details: postemergence
Method in brief: (§1)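 Compound is applied as a foliar spray to seedlings about two weeks old, formulated in equal parts acetone and water with 0.5% TWEEN 20 and delivered at 40 psi to give about 0.0156–0.500 kg per hectare. Injury is rated visually 0–9 after four to five weeks.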

[2] = system: CHEAL (Lambsquarters, Common); experiment: Postemergence herbicidal evaluation; format: in vivo, Chenopodium album; details: postemergence
Method in brief: as §1

[3] = system: AMBEL (Ragweed, Common); experiment: Preemergence herbicidal evaluation; format: in vivo, Ambrosia artemisifolia; details: preemergence, rated 4-5 weeks after treatment, 0-9 scale
Method in brief: (§2)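 Visual 0-9 rating vs control (stand, vigor, malformation, size, chlorosis, overall appearance), scored 4-5 wk after spraying. Seeded soil cups were treated preemergence with compound in aqueous acetone, ~0.0156-0.500 kg/ha equivalent.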

[4] = system: SAGPY (Arrowhead (Pygmaea)); experiment: Postemergence weed control under flooded paddy conditions; format: in vivo, Sagittaria pygmaea; details: postemergence weeds, rated 3 to 4 weeks after treatment
Method in brief: (§3)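 Herbicidal effect is judged by eye on a 0–9 scale versus control, 3–4 weeks after dosing. Dosing is into flood water kept 1.5–3 cm over the soil, at about 0.0313–0.500 kg/ha in aqueous/acetone 50/50 v/v, on 3–5 cm weeds and 1.5–2.5-leaf rice seedlings.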

[5] = system: SETVI (Foxtail, Green); experiment: Preemergence herbicidal evaluation; format: in vivo, Setaria viridis; details: preemergence, rated 4-5 weeks after treatment, 0-9 scale
Method in brief: as §2

[6] = system: ORYSAT (Rice, Tebonnet); experiment: Preemergence herbicidal evaluation; format: in vivo, Oryza sativa, (L.) Tebonnet; details: preemergence, rated 4-5 weeks after treatment, 0-9 scale
Method in brief: as §2

[7] = system: ORYSAT (Rice, Tebonnet); experiment: Postemergence herbicidal evaluation; format: in vivo, Oryza sativa, (L.) Tebonnet; details: postemergence
Method in brief: as §1

[8] = system: CYPSE (Flatsedge); experiment: Preemergence weed control under flooded paddy conditions; format: in vivo, Cyperus serotinus; details: rated 3-4 weeks after treatment
Method in brief: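 Seeds or propagules sown in silt loam kept flooded 1.5-3 cm; compounds in 50/50 acetone/water pipetted into flood water at about 0.0313 to 0.500 kg/ha. Greenhouse; visual 0-9 rating versus untreated control 3-4 weeks after treatment.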

[9] = system: CYPIR (Rice Flatsedge); experiment: Postemergence weed control under flooded paddy conditions; format: in vivo, Cyperus iria; details: postemergence weeds, rated 3 to 4 weeks after treatment
Method in brief: as §3

[10] = system: GALAP (Galium); experiment: Postemergence herbicidal evaluation; format: in vivo, Galium aparine; details: postemergence
Method in brief: as §1

[11] = system: CASOB (Sicklepod); experiment: Postemergence herbicidal evaluation; format: in vivo, Cassia obtusifolia; details: postemergence
Method in brief: as §1

[12] = system: CYPSE (Flatsedge); experiment: Postemergence weed control under flooded paddy conditions; format: in vivo, Cyperus serotinus; details: postemergence weeds, rated 3 to 4 weeks after treatment
Method in brief: as §3

[13] = system: GLXMAW (Soybean, Williams); experiment: Preemergence herbicidal evaluation; format: in vivo, Glycine max, (L.) Merr. cv Williams; details: preemergence, rated 4-5 weeks after treatment, 0-9 scale
Method in brief: as §2

COC(=O)C1(N2C(=O)CSC2=Nc2cc(-n3c(=O)cc(C(F)(F)F)n(C)c3=O)c(F)cc2Cl)CCCCC1 [Compound 81, Methyl 1-{2-{{2-chloro-5-[3,6-dihydro-3-methyl-2,6-dioxo-4-(trifluoromethyl)-1(2H)-pyrimidinyl]-4-fluorophenyl}imino}-4-oxo-3-thiazolidinyl}-cyclohexanecarboxylate]
ZEAMX herbicidal rating ([1]; rate 0.0158 kg/ha): 6.5
ZEAMX herbicidal rating ([1]; rate 0.0315 kg/ha): 7.0
ZEAMX herbicidal rating ([1]; rate 0.0630 kg/ha): 7.0
CHEAL herbicidal rating ([2]; rate 0.0158 kg/ha): 4.0
CHEAL herbicidal rating ([2]; rate 0.0315 kg/ha): 3.0
AMBEL rating ([3]; 0.0313 kg/ha): 6.0
AMBEL rating ([3]; 0.0625 kg/ha): 6.0
AMBEL rating ([3]; 0.1250 kg/ha): 9.0
AMBEL rating ([3]; 0.2500 kg/ha): 9.0
Herbicidal rating SAGPY ([4]; Rate 0.0625 kg/ha): 0.0
Herbicidal rating SAGPY ([4]; Rate 0.1250 kg/ha): 0.0
Herbicidal rating SAGPY ([4]; Rate 0.2500 kg/ha): 0.0
SETVI rating ([5]; 0.0313 kg/ha): 0.0
SETVI rating ([5]; 0.0625 kg/ha): 1.0
SETVI rating ([5]; 0.1250 kg/ha): 0.0
SETVI rating ([5]; 0.2500 kg/ha): 3.0
ORYSAT rating ([6]; 0.0313 kg/ha): 0.0
ORYSAT rating ([6]; 0.0625 kg/ha): 0.0
ORYSAT rating ([6]; 0.1250 kg/ha): 1.0
ORYSAT rating ([6]; 0.2500 kg/ha): 1.0
ORYSAT herbicidal rating ([7]; rate 0.0158 kg/ha): 4.5
ORYSAT herbicidal rating ([7]; rate 0.0315 kg/ha): 4.5
ORYSAT herbicidal rating ([7]; rate 0.0630 kg/ha): 5.5
CYPSE herbicidal effect rating ([8]; 0.0625 kg/ha): 0.0
CYPSE herbicidal effect rating ([8]; 0.1250 kg/ha): 0.0
CYPSE herbicidal effect rating ([8]; 0.2500 kg/ha): 0.0
Herbicidal rating CYPIR ([9]; Rate 0.0625 kg/ha): 4.0
Herbicidal rating CYPIR ([9]; Rate 0.1250 kg/ha): 5.0
Herbicidal rating CYPIR ([9]; Rate 0.2500 kg/ha): 5.0
GALAP herbicidal rating ([10]; rate 0.0158 kg/ha): 1.0
GALAP herbicidal rating ([10]; rate 0.0315 kg/ha): 5.0
GALAP herbicidal rating ([10]; rate 0.0630 kg/ha): 4.0
CASOB herbicidal rating ([11]; rate 0.0158 kg/ha): 1.0
CASOB herbicidal rating ([11]; rate 0.0315 kg/ha): 2.0
CASOB herbicidal rating ([11]; rate 0.0630 kg/ha): 5.0
Herbicidal rating CYPSE ([12]; Rate 0.0625 kg/ha): 0.0
Herbicidal rating CYPSE ([12]; Rate 0.1250 kg/ha): 0.0
Herbicidal rating CYPSE ([12]; Rate 0.2500 kg/ha): 0.0
GLXMAW rating ([13]; 0.0313 kg/ha): 0.0
GLXMAW rating ([13]; 0.0625 kg/ha): 2.0
GLXMAW rating ([13]; 0.1250 kg/ha): 1.0
GLXMAW rating ([13]; 0.2500 kg/ha): 3.0

CCOC(=O)CN1C(=O)C(CC(=O)OCCF)SC1=Nc1cc(-n2c(=O)cc(C(F)(F)F)n(C)c2=O)c(F)cc1Cl (stereo not drawn) [Compound 82, 2-{{2-Chloro-5-[3,6-dihydro-3-methyl-2,6-dioxo-4-(trifluoromethyl)-1(2H)-pyrimidinyl]-4-fluoro-phenyl}imino}-4-oxo-3,5-thiazolidinediacetic acid, 3-ethyl 2-fluoroethyl ester]
ZEAMX herbicidal rating ([1]; rate 0.0158 kg/ha): 8.5
ZEAMX herbicidal rating ([1]; rate 0.0315 kg/ha): 8.5
ZEAMX herbicidal rating ([1]; rate 0.0630 kg/ha): 9.0
CHEAL herbicidal rating ([2]; rate 0.0158 kg/ha): 7.0
CHEAL herbicidal rating ([2]; rate 0.0315 kg/ha): 9.0
CHEAL herbicidal rating ([2]; rate 0.0630 kg/ha): 9.0
AMBEL rating ([3]; 0.0156 kg/ha): 0.0
AMBEL rating ([3]; 0.0313 kg/ha): 2.0
AMBEL rating ([3]; 0.0625 kg/ha): 3.0
AMBEL rating ([3]; 0.1250 kg/ha): 9.0
AMBEL rating ([3]; 0.2500 kg/ha): 9.0
Herbicidal rating SAGPY ([4]; Rate 0.0313 kg/ha): 4.0
Herbicidal rating SAGPY ([4]; Rate 0.0625 kg/ha): 4.0
Herbicidal rating SAGPY ([4]; Rate 0.1250 kg/ha): 4.0
Herbicidal rating SAGPY ([4]; Rate 0.2500 kg/ha): 7.0
SETVI rating ([5]; 0.0156 kg/ha): 0.0
SETVI rating ([5]; 0.0313 kg/ha): 0.0
SETVI rating ([5]; 0.0625 kg/ha): 7.0
SETVI rating ([5]; 0.1250 kg/ha): 9.0
SETVI rating ([5]; 0.2500 kg/ha): 9.0
ORYSAT rating ([6]; 0.0156 kg/ha): 0.0
ORYSAT rating ([6]; 0.0313 kg/ha): 0.0
ORYSAT rating ([6]; 0.0625 kg/ha): 0.0
ORYSAT rating ([6]; 0.1250 kg/ha): 0.0
ORYSAT rating ([6]; 0.2500 kg/ha): 0.0
ORYSAT herbicidal rating ([7]; rate 0.0158 kg/ha): 3.0
ORYSAT herbicidal rating ([7]; rate 0.0315 kg/ha): 3.0
ORYSAT herbicidal rating ([7]; rate 0.0630 kg/ha): 8.5
CYPSE herbicidal effect rating ([8]; 0.0313 kg/ha): 0.0
CYPSE herbicidal effect rating ([8]; 0.0625 kg/ha): 0.0
CYPSE herbicidal effect rating ([8]; 0.1250 kg/ha): 2.0
CYPSE herbicidal effect rating ([8]; 0.2500 kg/ha): 4.0
Herbicidal rating CYPIR ([9]; Rate 0.0313 kg/ha): 0.0
Herbicidal rating CYPIR ([9]; Rate 0.0625 kg/ha): 0.0
Herbicidal rating CYPIR ([9]; Rate 0.1250 kg/ha): 3.0
Herbicidal rating CYPIR ([9]; Rate 0.2500 kg/ha): 3.0
GALAP herbicidal rating ([10]; rate 0.0158 kg/ha): 4.0
GALAP herbicidal rating ([10]; rate 0.0315 kg/ha): 9.0
GALAP herbicidal rating ([10]; rate 0.0630 kg/ha): 9.0
CASOB herbicidal rating ([11]; rate 0.0158 kg/ha): 9.0
CASOB herbicidal rating ([11]; rate 0.0315 kg/ha): 9.0
CASOB herbicidal rating ([11]; rate 0.0630 kg/ha): 9.0
Herbicidal rating CYPSE ([12]; Rate 0.0313 kg/ha): 0.0
Herbicidal rating CYPSE ([12]; Rate 0.0625 kg/ha): 0.0
Herbicidal rating CYPSE ([12]; Rate 0.1250 kg/ha): 2.0
Herbicidal rating CYPSE ([12]; Rate 0.2500 kg/ha): 4.0
GLXMAW rating ([13]; 0.0156 kg/ha): 0.0
GLXMAW rating ([13]; 0.0313 kg/ha): 0.0
GLXMAW rating ([13]; 0.0625 kg/ha): 0.0
GLXMAW rating ([13]; 0.1250 kg/ha): 0.0
GLXMAW rating ([13]; 0.2500 kg/ha): 5.0
